Tests used:
[1] = Oral bioavailability in mouse at 5 mg/kg; assay type: ADME, organism-based; conditions: in vivo
[2] = Permeability across apical to basolateral side in human Caco2 cells; assay type: ADME, cell-based; conditions: Caco-2
[3] = Intrinsic clearance in human liver microsomes; assay type: ADME; conditions: read-out: CLH
[4] = Intrinsic clearance in rat liver microsomes; assay type: ADME; conditions: read-out: CLH
[5] = Clearance in mouse at 5 mg/kg, iv; assay type: ADME, organism-based; design: dose 5 mg/kg, route intravenous; conditions: in vivo

With `OCCCNc1ccc2c(c1)nc(-c1ccc3c(c1)OCO3)n1ncnc21` as the compound, how does the bioavailability [1] read?
The bioavailability was 1.5%.

And the Papp A→B [2]?
The Papp A→B was 65.4 ×10⁻⁶ cm/s.

What about the CLint scaled [3] of the same compound?
The CLint scaled was 29.2 mL/min/kg.

What about the CLint scaled [4] of the same compound?
Its CLint scaled is 600 mL/min/kg.

And the clearance [5]?
The clearance was 132 mL/min/kg.

From ChEMBL document CHEMBL3352169, “Fragment-based hit discovery and structure-based optimization of aminotriazoloquinazolines as novel Hsp90 inhibitors” (Bioorg Med Chem, 2014)
